From patent publication US9295732B2, “Conjugated TLR7 and/or TLR8 and TLR2 polycationic agonists” (CAYLA, priority 2013, dated 2016) come the findings set out here.

“And” between values parts separate entries of the source, which are not always exact repeats. Equal entries are not always repeated.

For series [1], the target named is T1, human TLR2 (Homo sapiens, UniProt O60603).
T1 construct: host or cells: HEK293 (HEK-Blue™ hTLR2)
The series can be described thus: HEK-Blue hTLR2 NF-κB/AP-1 SEAP reporter assay. Format: cell-based. Conditions: HEK-Blue hTLR2 cells, 10 μg/mL to 10 pg/ml, 24 hours, OD at 655 nm, FIG. 3. The procedure: (§1) Cell-based assays were carried out using TLR7 and TLR2 reporter cell lines (InvivoGen). The reporter cell lines are engineered HEK293 cells, a human embryonic kidney cell line (ATCC, CRL-1573) that stably express either murine TLR7 (HEK-Blue™ mTLR7) or human TLR7 (HEK-Blue™ hTLR7) or human TLR2 (HEK-Blue™ hTLR2) with an NF-κB-inducible secreted embryonic alkaline phosphatase (SEAP) as the reporter gene. The SEAP reporter gene is under the control of the NF-κB and AP-1-inducible promoter, which, upon treatment with a corresponding TLR ligand and activation of NF-κB and AP-1, induces the production of SEAP. Detection of SEAP is measured following culturing cells in HEK-Blue™ Detection media (InvivoGen). HEK-Blue™ Detection contains a SEAP substrate that when hydrolysed by SEAP produces a colorimetric change allowing for detection of SEAP as the protein is secreted. […] These assays were carried out using RAW-Blue™ Cells (InvivoGen), derived from RAW 264.7 mouse leukemic monocyte macrophage cell line (ATCC, CRL 2278) stably overexpressing a NF-B/AP-1 inducible SEAP reporter constructs.
(§2) To perform the assay, cells were seeded on 96 well microliter plates at 50,000 or 100,000 cells per well for HEK-Blue™ Cells and RAW-Blue™ Cells respectively, and cultured at 37° C. in the presence of the conjugated compounds The TLR7-TLR2 polyamine molecules were prepared as follows: First, stock solutions of the conjugated compounds of the invention were prepared in ethanol or water to a concentration of 10 mg/ml.
(§3) The working dilutions of the conjugated TLR7-TLR2 polyamine agonists made up in water or PBS were directly added to the reporter cell lines at a final concentration ranging from 10 μg/mL to 10 pg/ml and incubated at 37° C. for 24 hours. After 24 hours of incubation, the effect on reporter gene activity was determined by reading the OD at 655 nm using iMark™ Microplate Reader (BIO-RAD).
(In general: A reporter such as luciferase makes a cellular process visible.)

Series [2] relates to endogenous TLR2 and TLR7 in RAW-Blue™ Cells. The series is described as follows: RAW-Blue Cells NF-κB/AP-1 SEAP reporter assay. Conditions: 24 hours, OD at 655 nm, FIG. 4. Format: cell-based, mouse. The method, then: as §1, §2, §3
Series [3] has as its system plasmid DNA (pDNA). The series can be described thus: Gel shift (mobility shift) assay of pDNA complexation. It counts as binding. Conditions: pDNA:molecule ratio 3:24 (w:w), 0.8% agarose gel, compared to pDNA alone. The method, then:
Then, 10 μl of pDNA:TLR7-TLR2 polyamine molecule complexes and 2 μl of charge buffer were mixed and loaded into wells of a 0.8% agarose gel. Samples were migrated through the gel in TAE buffer under 135 voltage for 21 mins and the migration of the pDNA was visualized following ethidium bromide staining under UV light. The ability of TLR7-TLR2 polyamine molecules to complex/associate with the pDNA was identified by partial or complete retardation of the pDNA migration toward the anode in the gel compared to pDNA alone. […] Ethidium bromide intercalation of pDNA in complex with molecules allowed visualization of complexed pDNA as a smear in the wells of the gel.
Background: A gel shift assay detects complexes by their altered migration in electrophoresis.

Series [4] has as its target T2, human TLR7 (Homo sapiens, UniProt Q9NYK1).
T2 construct: host or cells: HEK293 (HEK-Blue™ hTLR7)
T2 sequence (Q9NYK1 27-1049): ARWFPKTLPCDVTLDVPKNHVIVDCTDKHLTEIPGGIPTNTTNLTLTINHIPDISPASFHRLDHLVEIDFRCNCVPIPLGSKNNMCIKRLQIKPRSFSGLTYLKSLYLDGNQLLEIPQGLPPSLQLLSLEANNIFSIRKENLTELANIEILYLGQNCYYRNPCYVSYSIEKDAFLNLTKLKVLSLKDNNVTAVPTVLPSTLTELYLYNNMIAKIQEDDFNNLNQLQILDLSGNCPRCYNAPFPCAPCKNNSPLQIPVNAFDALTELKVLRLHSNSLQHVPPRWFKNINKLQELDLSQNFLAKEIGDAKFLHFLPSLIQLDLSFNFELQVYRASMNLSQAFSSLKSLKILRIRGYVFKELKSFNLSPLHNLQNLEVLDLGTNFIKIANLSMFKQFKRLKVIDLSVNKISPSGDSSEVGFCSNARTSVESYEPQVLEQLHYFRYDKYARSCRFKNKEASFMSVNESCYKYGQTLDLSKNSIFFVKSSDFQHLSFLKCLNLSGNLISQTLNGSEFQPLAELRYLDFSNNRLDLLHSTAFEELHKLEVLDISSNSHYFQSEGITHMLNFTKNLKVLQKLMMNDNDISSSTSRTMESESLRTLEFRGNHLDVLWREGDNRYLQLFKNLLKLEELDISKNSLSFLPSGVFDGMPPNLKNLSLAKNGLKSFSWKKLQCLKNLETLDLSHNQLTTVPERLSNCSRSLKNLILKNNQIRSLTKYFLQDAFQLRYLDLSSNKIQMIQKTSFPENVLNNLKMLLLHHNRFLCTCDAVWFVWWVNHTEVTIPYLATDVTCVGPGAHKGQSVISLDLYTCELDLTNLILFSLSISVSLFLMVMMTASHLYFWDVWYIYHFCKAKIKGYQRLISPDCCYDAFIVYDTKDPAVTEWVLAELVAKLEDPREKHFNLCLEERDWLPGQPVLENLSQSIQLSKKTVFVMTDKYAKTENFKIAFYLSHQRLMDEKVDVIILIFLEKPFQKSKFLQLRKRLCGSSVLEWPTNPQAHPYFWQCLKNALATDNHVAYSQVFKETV
The series can be described thus: HEK-Blue hTLR7 NF-κB/AP-1 SEAP reporter assay. It counts as cell-based. The following applies: HEK-Blue hTLR7 cells, 10 μg/mL to 10 pg/ml, 24 hours, OD at 655 nm, FIG. 1. The procedure:
as §1, §2, §3

For series [5], the target named is T3, murine TLR7 (Mus musculus, UniProt P58681).
T3 construct: host or cells: HEK293 (HEK-Blue™ mTLR7)
T3 sequence (P58681 27-1050): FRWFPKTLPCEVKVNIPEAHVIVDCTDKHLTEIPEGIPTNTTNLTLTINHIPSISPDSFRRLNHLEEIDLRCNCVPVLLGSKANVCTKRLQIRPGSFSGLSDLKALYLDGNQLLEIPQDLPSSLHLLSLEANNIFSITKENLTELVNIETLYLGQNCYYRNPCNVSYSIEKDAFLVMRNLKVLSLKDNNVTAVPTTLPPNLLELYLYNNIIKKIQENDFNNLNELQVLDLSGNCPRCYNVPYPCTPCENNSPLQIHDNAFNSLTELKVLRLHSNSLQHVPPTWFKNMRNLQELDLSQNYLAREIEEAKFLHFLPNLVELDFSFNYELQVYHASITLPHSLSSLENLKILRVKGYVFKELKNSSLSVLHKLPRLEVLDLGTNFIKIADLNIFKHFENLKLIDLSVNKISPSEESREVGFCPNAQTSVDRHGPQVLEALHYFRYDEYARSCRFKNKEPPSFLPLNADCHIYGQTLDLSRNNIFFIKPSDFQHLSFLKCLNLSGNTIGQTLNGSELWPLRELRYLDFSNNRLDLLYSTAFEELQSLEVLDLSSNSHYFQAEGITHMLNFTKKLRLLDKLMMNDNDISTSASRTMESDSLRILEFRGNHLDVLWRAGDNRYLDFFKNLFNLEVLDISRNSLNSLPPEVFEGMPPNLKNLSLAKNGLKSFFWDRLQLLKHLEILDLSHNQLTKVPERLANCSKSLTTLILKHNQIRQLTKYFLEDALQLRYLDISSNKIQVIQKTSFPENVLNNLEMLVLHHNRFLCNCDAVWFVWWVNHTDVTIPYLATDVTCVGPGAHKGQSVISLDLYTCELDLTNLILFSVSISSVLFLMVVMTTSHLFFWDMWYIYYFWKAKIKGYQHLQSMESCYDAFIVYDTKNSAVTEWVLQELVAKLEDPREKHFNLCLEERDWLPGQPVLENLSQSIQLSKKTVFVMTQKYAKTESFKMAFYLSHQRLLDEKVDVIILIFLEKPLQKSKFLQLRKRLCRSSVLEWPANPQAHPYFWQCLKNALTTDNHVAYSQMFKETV
The series can be described thus: HEK-Blue mTLR7 NF-κB/AP-1 SEAP reporter assay. Format: cell-based. The following applies: HEK-Blue mTLR7 cells, 10 μg/mL to 10 pg/ml, 24 hours, OD at 655 nm, FIG. 2. The procedure:
as §1, §2, §3

Series [6] is described as follows: Nanoparticle (lipoplex) size by dynamic light scattering.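 Further: lipoplexes of TLR7-TLR2 polyamine conjugates with plasmid DNA, formed over 30 min at room temperature in serum-free medium or 5% glucose, diameter in nm, PDI dimensionless.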 Conditions: 25° C., triplicate.

T1 sequence (O60603 21-784): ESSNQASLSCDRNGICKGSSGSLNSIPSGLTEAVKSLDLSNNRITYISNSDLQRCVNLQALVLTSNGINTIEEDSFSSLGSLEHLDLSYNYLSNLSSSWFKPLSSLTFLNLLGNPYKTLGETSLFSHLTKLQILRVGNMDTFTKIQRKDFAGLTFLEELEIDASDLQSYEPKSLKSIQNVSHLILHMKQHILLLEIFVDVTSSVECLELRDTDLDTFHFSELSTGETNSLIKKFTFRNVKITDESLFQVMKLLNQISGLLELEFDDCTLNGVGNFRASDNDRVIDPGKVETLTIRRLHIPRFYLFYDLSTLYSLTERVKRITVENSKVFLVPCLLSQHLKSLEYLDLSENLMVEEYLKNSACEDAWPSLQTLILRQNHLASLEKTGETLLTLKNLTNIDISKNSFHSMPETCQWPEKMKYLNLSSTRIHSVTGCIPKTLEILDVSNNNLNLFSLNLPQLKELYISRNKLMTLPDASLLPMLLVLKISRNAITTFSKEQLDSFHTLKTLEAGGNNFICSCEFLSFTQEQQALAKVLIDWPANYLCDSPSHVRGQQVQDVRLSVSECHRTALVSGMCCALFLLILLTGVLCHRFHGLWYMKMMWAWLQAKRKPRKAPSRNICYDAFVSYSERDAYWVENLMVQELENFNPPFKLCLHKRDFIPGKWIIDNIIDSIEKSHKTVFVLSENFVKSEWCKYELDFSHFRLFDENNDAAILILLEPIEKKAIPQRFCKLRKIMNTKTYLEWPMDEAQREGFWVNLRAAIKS

For the compound `CCCCCCCCCCCCCCCC(=O)OCC(CSC[C@H](N)C(=O)N[C@@H](CO)C(=O)N[C@@H](CCCCN)C(=O)N[C@@H](CCCCNC(=O)c1ccc(Cn2c(O)nc3c(N)nc(NCCCC)nc32)cc1)C(=O)N[C@@H](CCCCN)C(=O)N[C@@H](CCCCN)C(=O)O)OC(=O)CCCCCCCCCCCCCCC` (stereo partly drawn) [CL531, (2S,5S,8S,11S,14S,17R)-17-amino-8-(4-(4-((6-amino-2-(butylamino)-8-hydroxy-9H-purin-9-yl)methyl)benzamido)butyl)-2,5,11-tris(4-aminobutyl)-14-(hydroxymethyl)-4,7,10,13,16,24-hexaoxo-21-(palmitoyloxy)-23-oxa-19-thia-3,6,9,12,15-pentaaza nonatriacontan-1-oic acid], the “ability to activate hTLR2” value in series [1] is listed as “activate hTLR2”. Further, in series [2], the “ability to activate endogenous TLR2 and TLR7 in RAW-Blue Cells” value (“ability … in RAW-Blue Cells” for short) is “activate endogenous TLR2 and TLR7”. Moreover, in series [3], the “ability to complex pDNA (retardation of pDNA migration in agarose gel)” value (from here on “ability to complex pDNA”) is “inability to migrate through an agarose gel”. Further, in series [4], the “ability to activate hTLR7” value is “activate hTLR7”. Further, the “ability to activate mTLR7” value in series [5] is recorded as “activate mTLR7”.
`CCCCCCCCCCCCCCCC(=O)OCC(CSC[C@H](N)C(=O)NCCCNCCCCNCCCN)OC(=O)CCCCCCCCCCCCCCC` (some centres unmarked) [CL419]: the “Mean Diameter” value in series [6] (complexes with pDNA 3:24 (w:w), dynamic light scattering) was 147.0 nm and 148.5 nm and 156.7 nm. Besides, the PDI in series [6] (polydispersity index of complexes with pDNA 3:24 (w:w)) was 0.185 and 0.193 and 0.210.
For `CCCCCCCCCCCCCCCC(=O)OCC(CSC[C@H](N)C(=O)N[C@@H](CO)C(=O)N[C@@H](CCCCN)C(=O)N[C@@H](CCCCN)C(=O)N[C@@H](CCCCNC(=O)c1ccc(Cn2c(O)nc3c(N)nc(NCCCC)nc32)cc1)C(=O)N[C@@H](CCCCN)C(=O)O)OC(=O)CCCCCCCCCCCCCCC` (stereo partly drawn) [CL530, (2S,5S,8S,11S,14S,17R)-17-amino-5-(4-(4-((6-amino-2-(butylamino)-8-hydroxy-9H-purin-9-yl)methyl)benzamido)butyl)-2,8,11-tris(4-aminobutyl)-14-(hydroxymethyl)-4,7,10,13,16,24-hexaoxo-21-(palmitoyloxy)-23-oxa-19-thia-3,6,9,12,15-pentaaza nonatriacontan-1-oic acid], the “ability to activate hTLR2” value in series [1] was “activate hTLR2”. The “ability … in RAW-Blue Cells” value in series [2] is “activate endogenous TLR2 and TLR7”. In addition, the “ability to complex pDNA” value in series [3] is “inability to migrate through an agarose gel”. The “ability to activate hTLR7” value in series [4] is reported as “activate hTLR7”. In addition, in series [5], the “ability to activate mTLR7” value is on record as “activate mTLR7”.
Regarding `CCCCCCCCCCCCCCCC(=O)N[C@@H](CSCC(COC(=O)CCCCCCCCCCCCCCC)OC(=O)CCCCCCCCCCCCCCC)C(=O)N[C@@H](CO)C(=O)N[C@@H](CCCCN)C(=O)N[C@@H](CCCCN)C(=O)N[C@@H](CCCCNC(=O)c1ccc(Cn2c(O)nc3c(N)nc(NCCCC)nc32)cc1)C(=O)N[C@@H](CCCCN)C(=O)O` (stereo partly drawn) [CL535, (2S,5S,8S,11S,14S,17R)-5-(4-(4-((6-amino-2-(butylamino)-8-hydroxy-9H-purin-9-yl)methyl)benzamido)butyl)-2,8,11-tris(4-aminobutyl)-14-(hydroxymethyl)-4,7,10,13,16,24-hexaoxo-17-palmitamido-21-(palmitoyloxy)-23-oxa-19-thia-3,6,9,12,15-pentaazanonatriacontan-1-oic acid], the “ability to activate hTLR2” value in series [1] was “activate hTLR2”. Moreover, the “ability … in RAW-Blue Cells” value in series [2] is “activate endogenous TLR2 and TLR7”. Also, the “ability to complex pDNA” value in series [3] was “inability to migrate through an agarose gel”. Further, the “ability to activate hTLR7” value in series [4] is recorded as “activate hTLR7”. For the same compound, the “ability to activate mTLR7” value in series [5] is “activate mTLR7”.
